Like-named read-outs stand apart in the source and are kept apart here.
How the values were obtained:
nuclear factor κB (NFKB) = conditions: cited from earlier work
[1] = in vivo; cited from earlier work
STAT3 and NFkB signaling = conditions: periphery and CNS, via regulation of STAT3 and NFkB signaling; cited from earlier work
[2] = Ambient stability assessment, open Petri dish, 7 days; assay type: physicochemical; conditions: ambient conditions, open in a fume hood, T=0, 3 and 7 days
Procedure: For ambient stability assessment, anatabine glutarate (100 mg) was weighed into a clear glass Petri dish and retained at ambient conditions, open in a fume hood for 7 days. The stored sample was visually assessed at T=0, 3 and 7 days. No change in the color or any evidence of deliquescence were observed (FIG. 12).

[3] = Dynamic vapor sorption (DVS) testing; assay type: physicochemical; conditions: for mass gain between the starting weight and the end weight: DVS double cycle, final mass vs starting mass
Procedure: Anatabine glutarate (20 mg) was dispensed directly into a pre-weighed sample pan and transferred to the instrument (DVS1 Advantage). Double cycle 0-90-O-90-0% RH method with 10% RH steps was applied.
Dynamic vapor sorption (DVS) was performed on SMS DVS dynamic vapor sorption instrument using DVS control software v1.0.6.0. 30 mg of sample was weighed in stainless steel DVS basket before submitting for analysis. The samples were analyzed over the range of 0-90/RH with a maximum time of 6 hours per humidity stage. Each sample was exposed to a double cycle. Analysis was performed as a weight percent change from 0-90% RH with isothermal plots also being examined. XRPD analysis of all samples was performed post-DVS.
This indicates a gain of moisture.
This was further confirmed by an isotherm plot of this sample.
When comparing X-ray diffraction patterns of the sample before and after DVS a match was observed.

[4] = Stability assessment at accelerated conditions (40° C./75% RH, 7 days): visual, TGA, XRPD; assay type: physicochemical
Procedure: Anatabine glutarate was analyzed at T=0, and an aliquot subsequently stored in a glass vial with a screw cap lid at accelerated conditions (40° C./75% RH) in an incubator for 7 days prior to further analysis. […] The stored sample was also assessed at T=0 and again post T=7 days using TGA, XRPD and HPLC-UV.
Powder X-ray diffraction (XRPD) was performed on Bruker D8 Advance XRPD using 9 mm cavity and flat plate sample holders. Samples were prepared by coating them onto sample holders fitted with a zero background silicon wafer (5 1 0). Analysis was performed using a Cu Kα X-Ray source which operated at 40 kV at 40 mA and a Lynx Eye TM detector, all samples were analyzed over the range 2-40° 20.
Thermogravimetric Analysis (TGA) was performed on Perkin Elmer PYRIS 1 TGA using 40 μL aluminum pans (vented) in ceramic crucibles. The samples were heated from room temperature to 400° C. at 10° C./min (unless otherwise stated) under a stream of nitrogen gas.

[5] = Forced degradation trial by HPLC-UV; assay type: physicochemical; conditions: oxidized sample, 3% hydrogen peroxide added; T=0, 4 and 18 hours; only condition of acid, base, control, heat, oxidation with degradation
Procedure: For evaluation of stability by HPLC-UV, 200 μg/ml sample solution of anatabine and anatabine glutarate were prepared in duplicate by weighing approximately 10 mg and dissolving in 50 ml volumetric flask and bringing to the volume with deionized water. During the HPLC method optimization the run time and gradient have been adjusted for stability analysis. After the method optimization, a forced degradation trial was run to aid the planned stability assessment analysis by identifying any degradants or impurities present in the anatabine glutarate sample. The forced degradation trial analyzed samples under five conditions—acid, base, control, heat and oxidation—and were tested at T=0, 4 and 18 hours.

[6] = Hygroscopicity of comparative anatabine salts (handling observation); assay type: physicochemical
Procedure: Anatabine free base (160 mg, 1 mmol) was dissolved in anhydrous acetone (2.5 ml). To the formed solution was added a solution of anhydrous citric acid (192 mg, 1 mmol) in anhydrous acetone (3 ml, required sonication) with stirring under nitrogen. The mixture was stirred for 2 hours and then filtered under a blanket of nitrogen. The solid was washed with a small quantity of anhydrous acetone and dried in vacuo. A yield of 340 mg (96.6%) of anatabine citrate was achieved. […] Chemical structure and stoichiometry was confirmed by proton NMR. The solid form of the citrate contains captured acetone.

[7] = stored at 40° C./75% RH for 7 days

## C1=CCC(c2cccnc2)NC1 (centres unmarked) [anatabine, 3-[1,2,3,6-Tetrahydropyridin-2-yl]pyridine]
Nuclear factor κB (NFKB)
  transcription mediated by nuclear factor κB (NFKB): reduces transcription
[1]
  reversal of precipitated nicotine withdrawal: does not reverse
  rewarding effect in rodents trained to self-administer nicotine: do not find anatabine to be rewarding
STAT3 and NFkB signaling
  anti-inflammatory activity: has an anti-inflammatory activity

## C1=CCC(c2cccnc2)NC1 (centres unmarked) [anatabine glutarate, 3-(1,2,3,6-tetrahydropyridin-2-yl)pyridine glutarate]
[2]
  visual assessment: color or evidence of deliquescence: No change
[3]; DVS 0-90% RH, first sorption cycle, majority of gain above 70% RH
  mass gain on first sorption cycle: 55%
[3]; DVS 0-90% RH
  mass gain in second sorption cycle: 50%
[3]; DVS 0-90% RH, listed as Anatabine glutarate
  mass gain in second sorption cycle: about 50%
[3]
  mass gain between the starting weight and the end weight: 5%
[3]; listed as Anatabine glutarate
  mass gain between the starting weight and the end weight: about 5%
[3]; DVS first desorption cycle
  mass loss on first desorption cycle: about 50%
[3]; DVS, end of first desorption
  mass above the starting mass after first desorption: 5%
[3]; sample left overnight after DVS, recrystallized into a solid form
  crystal form before and after DVS (XRPD comparison): identical
[4]; 40° C./75% RH, glass vial with screw cap, T=0, 3 and 7 days
  visual assessment: color or evidence of deliquescence: no change observed
[4]; T=7 days sample, 40° C./75% RH
  TGA mass loss between 20-130° C.: 0.5%
  TGA mass loss between 150° C. and 400° C.: 80%
[4]; accelerated conditions (40° C./75% RH) after 7 days
  evidence of degradation: has not shown evidence of degradation
[4]; [7]
  change in thermal stability: no change in thermal stability
  change to the crystalline form (XRPD): no change to the crystalline form
[4]; superposition of thermograms, 40° C./75% RH
  difference in TGA mass loss between T=0 and T=7 days: 2%
[5]
  degradation by peak area (HPLC-UV): > 1%

## anatabine citrate
[6]
  hygroscopicity: extremely hygroscopic
[6]; listed as citrate
  hygroscopicity: highly hygroscopic

From patent publication US12281093B2, “3-(1,2,3,6-tetrahydropyridin-2-YL) pyridine glutarate or a pharmaceutically acceptable solvate thereof” (PHILIP MORRIS PRODUCTS S.A., priority 2018, dated 2025)
